# Experimental data reported in US11459338B2, “Heterocyclic compounds as PRMT5 inhibitors” (JUBILANT EPISCRIBE LLC, priority 2018, dated 2022).
# Like-named read-outs stand apart in the source and are kept apart here.
# Tests used:
# [1] = test system: Symmetric di-methyl arginine in Z-138 cells; assay: Z-138 methylation assay, ELISA for detection of symmetric di-methyl arginine; assay type: cell-based; details: Homo sapiens
# Protocol: General reagents. […] Iscove's Modified Dulbecco's Medium (IMDM), Horse serum, penicillin-streptomycin, PBS and TMB-ELISA substrate solution were purchased from ThermoFisher Scientific. Symmetric di-methyl arginine antibody was purchased from Cell Signaling Technologies.Anti-SNRPD3/SmD3 antibody was purchased from Sigma-Aldrich.
# ELISA for detection of Symmetric di-methyl arginine. […] A compound source plate was prepared by performing ten-point 3-fold dilution in DMSO, such that the final top concentration of the compound was 10 μM, and DMSO was 0.3%. The total volume of compounds added was 20 μL. The cells were incubated for 96 h at 37° C., 5% CO2. Z-138 cells were directly lysed in media with 3× Lysis Buffer (1×: 10 mM HEPES pH7.9, 5 mM MgCl2, 1M NaCl, 0.25M Sucrose, 1% Triton X-100, 1 mM PMSF, Protease & Phosphatase inhibitors). […] Plates were incubated at room temperature for a minimum of 3 h and then washed with PBS-Tween 20 (0.05%). The plates were blocked with 5% BSA at room temperature for 1 h, washed with PBS-Tween 20 and incubated with primary antibody at 4 C overnight.
# PRMT5/MEP50 = target: T1, PRMT5/MEP50 (Homo sapiens, UniProt O14744); assay: PRMT5/MEP50 enzyme assay on peptide substrates (3H-SAM Flashplate); assay type: biochemical; details: PRMT5/MEP50 10 nM, H4 1-15aa peptide 100 nM, 3H-SAM 1 μM
# T1 construct: Full-length human PRMT5 (NP_006100)
# Z-138 cells = assay: Z-138 long term proliferation assay (Cell Titer Glo); assay type: cell-based; details: Homo sapiens; for GI50: 192 h, Z-138 cells, cell viability, day 8, read-out: PRMT5 Z138 GI50 Day 8 μM; for IC50: Z-138, 192 h, summary of Table 1, read-out: IC50 value (all the three assays): Z138 GI50 Day 8
# Summary of the method: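 Z-138 cells exposed to ten-point 3-fold dilutions (top 10 μM, 0.3% DMSO) for 96 h at 37° C., 5% CO2, then re-dosed for four more days.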
# [2] = Z-138, 96 h, summary of Table 1, read-out: IC50 value (all the three assays): Z138 SDMA ELISA Day 4
# [3] = Z-138 cells, 96 h (day 4), read-out: PRMT5 Z138 SDMA ELISA Day 4 μM
# T1 sequence (O14744 whole entry): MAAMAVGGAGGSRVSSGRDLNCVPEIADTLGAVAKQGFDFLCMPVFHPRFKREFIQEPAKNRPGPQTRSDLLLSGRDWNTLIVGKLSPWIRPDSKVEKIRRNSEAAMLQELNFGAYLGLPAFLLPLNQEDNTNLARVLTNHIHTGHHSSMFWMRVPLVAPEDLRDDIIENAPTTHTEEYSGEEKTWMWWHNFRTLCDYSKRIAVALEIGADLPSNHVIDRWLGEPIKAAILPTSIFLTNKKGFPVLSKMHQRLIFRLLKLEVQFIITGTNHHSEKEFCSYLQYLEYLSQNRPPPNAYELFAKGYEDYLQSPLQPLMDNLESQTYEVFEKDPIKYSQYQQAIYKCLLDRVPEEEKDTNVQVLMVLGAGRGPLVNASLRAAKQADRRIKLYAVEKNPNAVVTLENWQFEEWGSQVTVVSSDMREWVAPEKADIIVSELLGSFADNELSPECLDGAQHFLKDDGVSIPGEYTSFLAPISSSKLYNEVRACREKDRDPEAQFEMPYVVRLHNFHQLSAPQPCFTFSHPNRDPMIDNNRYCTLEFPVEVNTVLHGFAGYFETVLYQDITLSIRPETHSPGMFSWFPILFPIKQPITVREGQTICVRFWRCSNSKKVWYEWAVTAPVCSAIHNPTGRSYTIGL
# T1 sequence (Q9BQA1 whole entry partner): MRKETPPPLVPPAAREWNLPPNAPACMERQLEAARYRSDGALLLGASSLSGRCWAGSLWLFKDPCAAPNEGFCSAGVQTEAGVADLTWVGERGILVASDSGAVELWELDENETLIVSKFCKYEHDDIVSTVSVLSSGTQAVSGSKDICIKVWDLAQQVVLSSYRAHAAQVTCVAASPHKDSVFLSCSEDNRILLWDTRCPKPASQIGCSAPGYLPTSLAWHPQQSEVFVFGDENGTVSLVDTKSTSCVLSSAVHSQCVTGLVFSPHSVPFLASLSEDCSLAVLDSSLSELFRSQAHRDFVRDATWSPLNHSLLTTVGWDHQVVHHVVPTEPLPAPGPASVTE
"IC50 [1, 2]","IC50 [1, 3]",IC50 (PRMT5/MEP50),Structure (SMILES),GI50 (Z-138 cells),IC50 (Z-138 cells)
0.01 to 1 µM,0.01 to 1 µM,0.01 to 1 µM,"O=C(NC[C@H](O)CN1CCc2ccccc2C1)c1cn2cc(-c3cnn([C@@H]4CCOC4)c3)ccc2n1 [Example 20, N—((S)-3-(3,4-dihydroisoquinolin-2(1H)-yl)-2-hydroxypropyl)-6-(1-((R)-tetrahydrofuran-3-yl)-1H-pyrazol-4-yl)imidazo[1,2-a]pyridine-2-carboxamide]",0.01 to 1 µM,0.01 to 1 µM
0.01 to 1 µM,0.01 to 1 µM,0.01 to 1 µM,"CC(=O)N1CC(n2cc(-c3ccc4nc(C(=O)NC[C@H](O)CN5CCc6ccccc6C5)cn4c3)cn2)C1 [Example 23, (S)-6-(1-(1-acetylazetidin-3-yl)-1H-pyrazol-4-yl)-N-(3-(3,4-dihydroisoquinolin-2(1H)-yl)-2-hydroxypropyl)imidazo[1,2-a]pyridine-2-carboxamide]",0.01 to 1 µM,0.01 to 1 µM
0.01 to 1 µM,0.01 to 1 µM,0.01 to 1 µM,"Cn1cc(-c2ccc3nc(C(=O)NC[C@H](O)CN4CCc5ccccc5C4)cn3c2)nn1 [Example 36, (S)—N-(3-(3,4-dihydroisoquinolin-2(1H)-yl)-2-hydroxypropyl)-6-(1-methyl-1H-1,2,3-triazol-4-yl)imidazo[1,2-a]pyridine-2-carboxamide]",0.01 to 1 µM,0.01 to 1 µM
,0.01 to 1 µM,0.01 to 1 µM,"CC(=O)Nc1ccc2nc(C(=O)NC[C@H](O)CN3CCc4ccccc4C3)cn2c1 [Example 39, (S)-6-acetamido-N-(3-(3,4-dihydroisoquinolin-2(1H)-yl)-2-hydroxypropyl)imidazo[1,2-a]pyridine-2-carboxamide]",1 to 5 µM,
,0.01 to 1 µM,> 5 µM,"CS(=O)(=O)Nc1ccc2nc(C(=O)NC[C@H](O)CN3CCc4ccccc4C3)cn2c1 [Example 41, (S)—N-(3-(3,4-dihydroisoquinolin-2(1H)-yl)-2-hydroxypropyl)-6-(methylsulfonamido)imidazo[1,2-a]pyridine-2-carboxamide]",0.01 to 1 µM,
,0.01 to 1 µM,0.01 to 1 µM,O=C(NC[C@H](O)CN1CCc2ccccc2C1)c1cn2cc(C(F)(F)F)cnc2n1 [Example 42],1 to 5 µM,
,0.01 to 1 µM,> 5 µM,"Cn1cc(-c2cnc3nc(C(=O)NC[C@H](O)CN4CCc5ccccc5C4)cn3c2)cn1 [Example 43, (S)—N-(3-(3,4-dihydroisoquinolin-2(1H)-yl)-2-hydroxypropyl)-6-(1-methyl-1H-pyrazol-4-yl)imidazo[1,2-a]pyrimidine-2-carboxamide]",> 5 µM,
0.01 to 1 µM,0.01 to 1 µM,0.01 to 1 µM,"Cn1cc(-c2cn3cc(C(=O)NC[C@H](O)CN4CCc5ccccc5C4)nc3cn2)cn1 [Example 45, (S)—N-(3-(3,4-dihydroisoquinolin-2(1H)-yl)-2-hydroxypropyl)-6-(1-methyl-1H-pyrazol-4-yl)imidazo[1,2-a]pyrazine-2-carboxamide]",0.01 to 1 µM,0.01 to 1 µM
0.01 to 1 µM,0.01 to 1 µM,0.01 to 1 µM,"Cn1ccc(-c2cn3cc(C(=O)NC[C@H](O)CN4CCc5ccccc5C4)nc3cn2)cc1=O [Example 47, (S)—N-(3-(3,4-dihydroisoquinolin-2(1H)-yl)-2-hydroxypropyl)-6-(1-methyl-2-oxo-1,2-dihydropyridin-4-yl)imidazo[1,2-a]pyrazine-2-carboxamide]",0.01 to 1 µM,0.01 to 1 µM
0.01 to 1 µM,0.01 to 1 µM,0.01 to 1 µM,"Cn1ccc(-c2ccc3nc(C(=O)NC[C@H](O)CN4CCc5ccccc5C4)cn3n2)cc1=O [Example 48, (S)—N-(3-(3,4-dihydroisoquinolin-2(1H)-yl)-2-hydroxypropyl)-6-(1-methyl-2-oxo-1,2-dihydropyridin-4-yl)imidazo[1,2-b]pyridazine-2-carboxamide]",0.01 to 1 µM,0.01 to 1 µM
,0.01 to 1 µM,0.01 to 1 µM,"O=C(NC[C@H](O)CN1CCc2ccccc2C1)c1cn2cc(N3CCC3)ccc2n1 [Example 69, (S)-6-(azetidin-1-yl)-N-(3-(3,4-dihydroisoquinolin-2(1H)-yl)-2-hydroxypropyl)imidazo[1,2-a]pyridine-2-carboxamide]",1 to 5 µM,
,0.01 to 1 µM,1 to 5 µM,"O=C(NC[C@H](O)CN1CCc2ccccc2C1)c1cn2cc(N3CCC(F)C3)ncc2n1 (stereo partly drawn) [Example 73, N—((S)-3-(3,4-dihydroisoquinolin-2(1H)-yl)-2-hydroxypropyl)-6-(3-fluoropyrrolidin-1-yl)imidazo[1,2-a]pyrazine-2-carboxamide]",1 to 5 µM,
,0.01 to 1 µM,0.01 to 1 µM,"CN(C[C@H](O)CN1CCc2ccccc2C1)C(=O)c1cn2cc(-c3ccn(C)c(=O)c3)ncc2n1 [Example 93, (R)—N-(3-(3,4-dihydroisoquinolin-2(1H)-yl)-2-hydroxypropyl)-N-methyl-6-(1-methyl-2-oxo-1,2-dihydropyridin-4-yl)imidazo[1,2-a]pyrazine-2-carboxamide]",1 to 5 µM,
0.01 to 1 µM,0.01 to 1 µM,0.01 to 1 µM,O=C(NCC(O)CNC1Cc2ccccc2C1)c1cn2cc(C(F)(F)F)ccc2n1 (centres unmarked) [Example 96],0.01 to 1 µM,0.01 to 1 µM
,0.01 to 1 µM,1 to 5 µM,"O=C(NC(CO)CCN1CCc2ccccc2C1)c1cn2cc(C(F)(F)F)ccc2n1 (centres unmarked) [Example 100, N-(4-(3,4-dihydroisoquinolin-2(1H)-yl)-1-hydroxybutan-2-yl)-6-(trifluoromethyl)imidazo[1,2-a]pyridine-2-carboxamide]",1 to 5 µM,
,0.01 to 1 µM,1 to 5 µM,"CC1CCc2nc(C(=O)NCC(O)CN3CCc4ccccc4C3)cn2C1 (centres unmarked) [Example 102, N-(3-(3,4-dihydroisoquinolin-2(1H)-yl)-2-hydroxypropyl)-6-methyl-5,6,7,8-tetrahydroimidazo[1,2-a]pyridine-2-carboxamide]",0.01 to 1 µM,
,0.01 to 1 µM,1 to 5 µM,"CC1CCn2cc(C(=O)NCC(O)CN3CCc4ccccc4C3)nc2C1 (centres unmarked) [Example 103, N-(3-(3,4-dihydroisoquinolin-2(1H)-yl)-2-hydroxypropyl)-7-methyl-5,6,7,8-tetrahydroimidazo[1,2-a]pyridine-2-carboxamide]",0.01 to 1 µM,
,0.01 to 1 µM,0.01 to 1 µM,"CCCC1CCc2nc(C(=O)NCC(O)CN3CCc4ccccc4C3)cn2C1 (centres unmarked) [Example 106, N-(3-(3,4-dihydroisoquinolin-2(1H)-yl)-2-hydroxypropyl)-6-propyl-5,6,7,8-tetrahydroimidazo[1,2-a]pyridine-2-carboxamide]",1 to 5 µM,
,0.01 to 1 µM,> 5 µM,"CO[C@@H]1CCc2nc(C(=O)NC[C@H](O)CN3CCc4ccccc4C3)cn2C1 [Example 107A, (R)—N—((S)-3-(3,4-dihydroisoquinolin-2(1H)-yl)-2-hydroxypropyl)-6-methoxy-5,6,7,8-tetrahydroimidazo[1,2-a]pyridine-2-carboxamide]",1 to 5 µM,
,0.01 to 1 µM,1 to 5 µM,"CC(C)C1CCc2nc(C(=O)NC[C@H](O)CN3CCc4ccccc4C3)cn2C1 (stereo partly drawn) [Example 108, N—((S)-3-(3,4-dihydroisoquinolin-2(1H)-yl)-2-hydroxypropyl)-6-isopropyl-5,6,7,8-tetrahydroimidazo[1,2-a]pyridine-2-carboxamide]",0.01 to 1 µM,
,0.01 to 1 µM,1 to 5 µM,"O=C(NCC(O)CN1CCc2ccccc2C1)c1cn2c(n1)CC(c1ccccc1)CC2 (centres unmarked) [Example 109, N-(3-(3,4-dihydroisoquinolin-2(1H)-yl)-2-hydroxypropyl)-7-phenyl-5,6,7,8-tetrahydroimidazo[1,2-a]pyridine-2-carboxamide]",> 5 µM,
,0.01 to 1 µM,1 to 5 µM,"O=C(NCC(O)CN1CCc2ccccc2C1)c1cn2c(n1)CCC(c1ccccc1)C2 (centres unmarked) [Example 110, N-(3-(3,4-dihydroisoquinolin-2(1H)-yl)-2-hydroxypropyl)-6-phenyl-5,6,7,8-tetrahydroimidazo[1,2-a]pyridine-2-carboxamide]",1 to 5 µM,
,0.01 to 1 µM,1 to 5 µM,"Cn1cc(C2CCc3nc(C(=O)NCC(O)CN4CCc5ccccc5C4)cn3C2)cn1 (centres unmarked) [Example 111, N-(3-(3,4-dihydroisoquinolin-2(1H)-yl)-2-hydroxypropyl)-6-(1-methyl-1H-pyrazol-4-yl)-5,6,7,8-tetrahydroimidazo[1,2-a]pyridine-2-carboxamide]",1 to 5 µM,
